Test results: PMC12729524, “Enhancement of Structural Stability and IgG Affinity of a Z34C-Derived α-Helical Peptide via Lactam Stapling” (Antibodies, 2025)
Where a SMILES comes first, the peptide text is derived from it.

Key:
FITC-labeled human IgG = test: IgG capture test on peptide-functionalized glass slides, fluorescence imaging; format: binding; conditions: peptide immobilized via thiol-maleimide on PEG-modified epoxy glass slide; antibody 5 µg/mL in PBS, 25 °C, 3 h; ImageJ; n = 1
Description: Epoxy-functionalized microscope glass slides (Tekdon Incorporated, Myakka City, FL, USA) were mounted in eight-well chambers. For peptide immobilization, NH2-PEG5000-COOH linkers (Biopharma PEG, Watertown, MA, USA) were applied to each well at a concentration of 1 mg/mL in ddH2O and incubated for ~5 h. The slides were then rinsed three times with ddH2O. Carboxyl groups of NH2-PEG5000-COOH linkers were activated for 30 min using 4 µg/mL 1-ethyl-3-(3-dimethylaminopropyl) carbodiimide hydrochloride (EDC; Thermo Fisher Scientific, Waltham, MA, USA) and 6 µg/mL N-hydroxy succinimide (NHS; Thermo Fisher Scientific) in ddH2O. Upon activation, the surfaces were washed three times with 1× PBS (Gibco, Grand Island, NY, USA) and incubated for over 5 h with an excess of NH2-PEG1000-MAL linkers (1 mg/mL in 1× PBS; Biopharma PEG). […]
[…] (Abcam, Cambridge, UK) were used to evaluate the antibody-binding capacity of each functionalized surface. […] The amount of surface-captured antibody was quantified via fluorescence imaging. […] Fluorescence intensity was analyzed using Image J software (64-bit Java 8). […]
Figure 3 IgG capture assay using FITC-labeled human IgG to evaluate the Fc-binding capability of peptides. […] (C) Quantitative fluorescence intensity analysis performed using ImageJ software (64-bit Java 8). […]

α-chymotrypsin = α-chymotrypsin (Bos taurus, UniProt P00766); conditions: 100 μM peptide in DPBS, peptide-to-enzyme mass ratio 100:1, time points 0, 1, 5, 15, 30, 60 min, stopped with 0.1% TFA, RP-HPLC read-out
Description: Peptides were prepared at a concentration of 100 μM in DPBS, and α-chymotrypsin was added to achieve a final peptide-to-enzyme mass ratio of 100:1. The digestion was carried out at time points of 0, 1, 5, 15, 30, and 60 min, after which 0.1% TFA was added to terminate the reaction. The resulting samples were analyzed by reversed-phase HPLC (water/acetonitrile with 0.1% TFA) to monitor peptide stability.

| Molecule | IgG-binding capacity (fluorescence intensity of captured IgG), in words (FITC-labeled human IgG) | time within which most of the peptide signal disappeared on α-chymotrypsin treatment (α-chymotrypsin) [min] |
| --- | --- | --- |
| Protein A: Fc-binding protein of Staphylococcus aureus, positive control of the IgG capture test | strong signal intensity | – |
| CSCC[C@H](NC(=O)[C@H](CC(N)=O)NC(=O)[C@@H](N)Cc1ccccc1)C(=O)N[C@@H](CCC(N)=O)C(=O)N[C@@H](C)C(=O)N[C@@H](CCC(N)=O)C(=O)N[C@@H](CCCNC(=N)N)C(=O)N[C@@H](CCCNC(=N)N)C(=O)N[C@@H](Cc1ccccc1)C(=O)N[C@@H](Cc1ccc(O)cc1)C(=O)N[C@@H](CCC(=O)O)C(=O)N[C@@H](C)C(=O)N[C@@H](CC(C)C)C(=O)N[C@@H](Cc1c[nH]cn1)C(=O)N[C@@H](CS)C(N)=O [SpA h1] (H-FNMQAQRRFYEALHC-NH2) | – | ≤ 1 |
